Assay results from ChEMBL document CHEMBL1201862, “PubChem BioAssay data set” (2004).
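Exposure lasted 48 hours, with cells grown in 96-well plates and compounds tested at five concentrations. Here, GI50 denotes the concentration required for 50% inhibition of growth.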 The source made the active and inactive calls. Cut-off read from the data, not from the text of the source: active = GI50 up to about 1.1 µM and inactive = higher.

Assays:
Assay in all cases: NCI-60 cell line screen, 48 h
786-0 = system: 786-0
A498 = system: A498
A549 = system: A549
ACHN = system: ACHN
CAKI-1 = system: CAKI-1
CCRF-CEM = system: CCRF-CEM
COLO 205 = system: COLO 205
DLD-1 = system: DLD-1
DMS-273 = system: DMS-273
EKVX = system: EKVX
HCC 2998 = system: HCC 2998
HCT-116 = system: HCT-116
HCT-15 = system: HCT-15
HL-60 = system: HL-60
HOP-18 = system: HOP-18
HOP-62 = system: HOP-62
HOP-92 = system: HOP-92
HT-29 = system: HT-29
IGROV-1 = system: IGROV-1
K562 = system: K562
KM-20L2 = system: KM-20L2
KM12 = system: KM12
LOX IMVI = system: LOX IMVI
LXFL 529 = system: LXFL 529
M14 = system: M14
M19-MEL = system: M19-MEL
MOLT-4 = system: MOLT-4
Malme-3M = system: Malme-3M
NCI-H226 = system: NCI-H226
NCI-H23 = system: NCI-H23
NCI-H460 = system: NCI-H460
NCI-H522 = system: NCI-H522
OVCAR-3 = system: OVCAR-3
OVCAR-4 = system: OVCAR-4
OVCAR-5 = system: OVCAR-5
OVCAR-8 = system: OVCAR-8
RPMI-8226 = system: RPMI-8226
RXF 393 = system: RXF 393
SF-268 = system: SF-268
SF-295 = system: SF-295
SF-539 = system: SF-539
SK-MEL-28 = system: SK-MEL-28
SK-MEL-2 = system: SK-MEL-2
SK-MEL-5 = system: SK-MEL-5
SK-OV-3 = system: SK-OV-3
SN12C = system: SN12C
SNB-19 = system: SNB-19
SNB-75 = system: SNB-75
SNB-78 = system: SNB-78
SR = system: SR
TK-10 = system: TK-10
U-251 = system: U-251
UACC-257 = system: UACC-257
UACC-62 = system: UACC-62
UO-31 = system: UO-31
XF498 = system: XF498
DMS-114 = system: DMS-114
SW-620 = system: SW-620

CCOC(=O)C1=C(OC(OCC)C([Se]c2ccccc2)C(C)C)CCC1 (stereo not drawn)
GI50 (786-0): 6.82 µM (inactive)
GI50 (A498): 26.5 µM (inactive)
GI50 (A549): 28.8 µM (inactive)
GI50 (ACHN): 23.4 µM (inactive)
GI50 (CAKI-1): 43.5 µM (inactive)
GI50 (CCRF-CEM): 3.44 µM (inactive)
GI50 (COLO 205): 14.7 µM (inactive)
GI50 (DLD-1): 14.7 µM (inactive)
GI50 (DMS-273): 5.52 µM (inactive)
GI50 (EKVX): 18.8 µM (inactive)
GI50 (HCC 2998): 36.8 µM (inactive)
GI50 (HCT-116): 12.5 µM (inactive)
GI50 (HCT-15): 15.2 µM
GI50 (HL-60): 3.24 µM (inactive)
GI50 (HOP-18): 16.2 µM (inactive)
GI50 (HOP-62): 68.7 µM (inactive)
GI50 (HOP-92): 27.5 µM (inactive)
GI50 (HT-29): 19.1 µM (inactive)
GI50 (IGROV-1): 18.3 µM (inactive)
GI50 (K562): 37 µM (inactive)
GI50 (KM-20L2): 28.8 µM (inactive)
GI50 (KM12): 41.1 µM (inactive)
GI50 (LOX IMVI): 2.31 µM (inactive)
GI50 (LXFL 529): 12.2 µM (inactive)
GI50 (M14): 15.8 µM (inactive)
GI50 (M19-MEL): 15.3 µM (inactive)
GI50 (MOLT-4): 14.7 µM (inactive)
GI50 (Malme-3M): 26.4 µM (inactive)
GI50 (NCI-H226): 13.7 µM (inactive)
GI50 (NCI-H23): 8.28 µM (inactive)
GI50 (NCI-H460): 16.9 µM (inactive)
GI50 (NCI-H522): 7.1 µM (inactive)
GI50 (OVCAR-3): 15.1 µM (inactive)
GI50 (OVCAR-4): 16.1 µM (inactive)
GI50 (OVCAR-5): 22.3 µM (inactive)
GI50 (OVCAR-8): 14.1 µM (inactive)
GI50 (RPMI-8226): 10.1 µM (inactive)
GI50 (RXF 393): 9.46 µM (inactive)
GI50 (SF-268): 4.73 µM (inactive)
GI50 (SF-295): 13.4 µM (inactive)
GI50 (SF-539): 12.3 µM (inactive)
GI50 (SK-MEL-28): 16.4 µM (inactive)
GI50 (SK-MEL-2): 15.1 µM (inactive)
GI50 (SK-MEL-5): 13 µM (inactive)
GI50 (SK-OV-3): 81.7 µM (inactive)
GI50 (SN12C): 10.4 µM (inactive)
GI50 (SNB-19): 27.2 µM (inactive)
GI50 (SNB-75): 23 µM (inactive)
GI50 (SNB-78): 12.8 µM (inactive)
GI50 (SR): 3.2 µM (inactive)
GI50 (TK-10): 47 µM (inactive)
GI50 (U-251): 4.29 µM (inactive)
GI50 (UACC-257): 23.2 µM (inactive)
GI50 (UACC-62): 14.2 µM (inactive)
GI50 (UO-31): 24.4 µM (inactive)
GI50 (XF498): 11.6 µM (inactive)

Clc1ccc(C2SCc3nc4ccccc4n32)cc1Cl (stereo not drawn)
GI50 (786-0): 13.8 µM (inactive)
GI50 (A549): 13.4 µM (inactive)
GI50 (ACHN): 13 µM (inactive)
GI50 (CAKI-1): 14.1 µM (inactive)
GI50 (CCRF-CEM): 23.7 µM (inactive)
GI50 (COLO 205): 20.3 µM (inactive)
GI50 (DLD-1): 12.6 µM (inactive)
GI50 (DMS-114): 14.8 µM (inactive)
GI50 (EKVX): 14.4 µM (inactive)
GI50 (HCT-116): 13.2 µM (inactive)
GI50 (HCT-15): 13.3 µM
GI50 (HL-60): 5.9 µM (inactive)
GI50 (HOP-18): < 0.01 µM (active)
GI50 (HOP-62): 14.5 µM (inactive)
GI50 (HOP-92): 11.2 µM (inactive)
GI50 (HT-29): 15.1 µM (inactive)
GI50 (IGROV-1): 17.3 µM (inactive)
GI50 (K562): 8.34 µM (inactive)
GI50 (KM12): 11.8 µM (inactive)
GI50 (LOX IMVI): 13.1 µM (inactive)
GI50 (LXFL 529): 11.8 µM (inactive)
GI50 (M14): 13.2 µM (inactive)
GI50 (M19-MEL): > 10 µM (inactive)
GI50 (MOLT-4): 17.1 µM (inactive)
GI50 (Malme-3M): 18.8 µM (inactive)
GI50 (NCI-H226): 25.2 µM (inactive)
GI50 (NCI-H23): 12.6 µM (inactive)
GI50 (NCI-H460): 13.5 µM (inactive)
GI50 (NCI-H522): 11.5 µM (inactive)
GI50 (OVCAR-3): 10.5 µM (inactive)
GI50 (OVCAR-4): 13.1 µM (inactive)
GI50 (OVCAR-5): 10.5 µM (inactive)
GI50 (OVCAR-8): 13.7 µM (inactive)
GI50 (RPMI-8226): 11.4 µM (inactive)
GI50 (RXF 393): 4.2 µM (inactive)
GI50 (SF-268): 15.9 µM (inactive)
GI50 (SF-295): 11.9 µM (inactive)
GI50 (SF-539): 17.1 µM (inactive)
GI50 (SK-MEL-28): 12.5 µM (inactive)
GI50 (SK-MEL-2): 16.2 µM (inactive)
GI50 (SK-MEL-5): 9.08 µM (inactive)
GI50 (SK-OV-3): 21.4 µM (inactive)
GI50 (SN12C): 12.6 µM (inactive)
GI50 (SNB-19): 10.6 µM (inactive)
GI50 (SNB-75): 3.25 µM (inactive)
GI50 (SNB-78): 12.3 µM (inactive)
GI50 (SR): 13.9 µM (inactive)
GI50 (SW-620): 15.3 µM (inactive)
GI50 (TK-10): 13 µM (inactive)
GI50 (U-251): 16 µM (inactive)
GI50 (UACC-62): 13.2 µM (inactive)
GI50 (XF498): 12.1 µM (inactive)
